From US8742123B2, “HIV integrase inhibitors from pyridoxine” (TaiMed Biologics, Inc., priority 2008, dated 2014) come the findings set out here.

The subject of the first assay is wild type NL-4.3. Briefly: multi-cycle infection assay in MT-4 cells (MTT cytoprotection). Format: cell-based, HIV-1. Conditions: Human immunodeficiency virus 1, MT4, 144 h; MT-4 cells, wild type NL-4.3, 6 days, MTT; read-out: EC50 (nM) multi-cycle. On the procedure: The antiviral efficacies of the integrase inhibitor compounds of the invention were evaluated based on EC50 measures obtained from two different in vitro HIV infection assay using cultured MT-4 cells: (1) a multi-cycle infection where cells were infected with wild type NL-4.3) and (2) a single-cycle infection where the cells were infected with a luciferase-bearing, envelope defective (env-) NL-4.3 virus pseudotyped with HIV-1 env (HXBc2.
The incubation period for the multi-cycle infection assay was 6 days. Cell viability (cytoprotection) and EC50 were determined using the colorimetric MTT assay (A. J. Japour et al, Antimicrobial Agents and Chemotherapy, 37, 1095-1101, 1993 and R. Pauwels et al. Journal of Virological Methods, 20, 309-321, 1988).
For `O=C(NCc1ccc2c(c1)OCO2)c1cnc(C(=O)NO)c(O)c1CO` [Example 4, N^5-(benzo[d][1,3]dioxol-5-ylmethyl)-N2,3-dihydroxy-4-(hydroxymethyl)pyridine-2,5-dicarboxamide], the EC50 was over 10000 nM.
As to `COc1ccc(CNC(=O)c2cnc(C(=O)NOCc3ccccc3)c(OCc3ccccc3)c2CO)cc1` [Example 5, N^2,3-bis(benzyloxy)-4-(hydroxymethyl)-N^5-(4-methoxybenzyl)pyridine-2,5-dicarboxamide], the EC50 was 900 nM.
As to `COc1ccc(CNC(=O)c2cnc(C(=O)NO)c(O)c2CO)cc1` [Example 6, N^2,3-dihydroxy-4-(hydroxymethyl)-N^5-(4-methoxybenzyl)pyridine-2,5-dicarboxamide], the concentration giving a half-maximal response (EC50) turned out to be 1000 nM.
Same read-out and setting: to `O=C(NCc1cc(F)cc(F)c1)c1cnc(C(=O)NOCc2ccccc2)c(OCc2ccccc2)c1CO` [Example 7, N^2,3-bis(benzyloxy)-N^5-(3,5-difluorobenzyl)-4-(hydroxymethyl)pyridine-2,5-dicarboxamide] belongs 1500 nM.
Same read-out and setting: then `O=C(NCc1cc(F)cc(F)c1)c1cnc(C(=O)NO)c(O)c1CO` [Example 8, N^5-(3,5-difluorobenzyl)-N^2,3-dihydroxy-4-(hydroxymethyl)pyridine-2,5-dicarboxamide], with over 10000 nM; and `O=C(NO)c1ncc(CNCc2ccc(F)cc2)c(CO)c1O` [Example 9], with 1000 nM; and `O=C(NO)c1ncc(CNCc2cc(F)cc(F)c2)c(CO)c1O` [Example 10, 5-((3,5-difluorobenzylamino)methyl)-N,3-dihydroxy-4-(hydroxymethyl)picolinamide], with over 10000 nM.
`O=C(NO)c1ncc(CNCc2ccc3c(c2)OCO3)c(CO)c1O` [Example 11, 5-((benzo[d][1,3]dioxol-5-ylmethylamino)methyl)-N,3-dihydroxy-4-(hydroxymethyl)picolinamide]: the EC50 was determined as 300 nM.
The same measure, in the same setting: then `COCc1c(C(=O)N(C)Cc2ccc(F)cc2)cnc(C(=O)NO)c1O` [Example 12, N^5-(4-fluorobenzyl)-N2,3-dihydroxy-4-(methoxymethyl)-N^5-methylpyridine-2,5-dicarboxamide], with 14000 nM; and `O=C(NCc1ccc(F)c(Cl)c1)c1cnc(C(=O)NOCc2ccccc2)c(OCc2ccccc2)c1CO` [Example 13, N^2,3-bis(benzyloxy)-N^5-(3-chloro-4-fluorobenzyl)-4-(hydroxymethyl)pyridine-2,5-dicarboxamide], with over 10000 nM.
`O=C(NCc1ccc(F)c(Cl)c1)c1cnc(C(=O)NO)c(O)c1CO` [Example 14, N^5-(3-chloro-4-fluorobenzyl)-N2,3-dihydroxy-4-(hydroxymethyl)pyridine-2,5-dicarboxamide]: the concentration giving a half-maximal response (EC50) was 123 nM.
On to `O=C(NCc1ccc(Cl)c(Cl)c1)c1cnc(C(=O)NOCc2ccccc2)c(OCc2ccccc2)c1CO` [Example 15, N^2,3-bis(benzyloxy)-N^5-(3,4-dichlorobenzyl)-4-(hydroxymethyl)pyridine-2,5-dicarboxamide], for which the EC50 is over 10000 nM.
On the same count and under the same terms, then `O=C(NCc1ccc(Cl)c(Cl)c1)c1cnc(C(=O)NO)c(O)c1CO` [Example 16, N^5-(3,4-dichlorobenzyl)-N^2,3-dihydroxy-4-(hydroxymethyl)pyridine-2,5-dicarboxamide], with 700 nM; and `COc1ccc(COCc2cnc(C(=O)NO)c(O)c2CO)cc1` [Example 17, N,3-Dihydroxy-4-(hydroxymethyl)-5-((4-methoxybenzyloxy)methyl)-picolinamide], with 2000 nM.
Same read-out and setting: to `O=C(NO)c1ncc(COCc2ccccc2)c(CO)c1O` [Example 18, 5-(Benzyloxymethyl)-N,3-dihydroxy-4-(hydroxymethyl)picolinamide] belongs 86 nM; to `COc1ccc(COCc2cnc(C(=O)NO)c3c2COC(C)(C)O3)cc1` [Example 19, N-hydroxy-5-((4-methoxybenzyloxy)methyl)-2,2-dimethyl-4H-[1,3]dioxino[4,5-c]pyridine-8-carboxamide], 5060 nM.
Same read-out and setting: then `O=C(NCc1ccc(F)c(F)c1)c1cnc(C(=O)NO)c(O)c1CO` [Example 20, N^5-(3,4-difluorobenzyl)-N^2,3-dihydroxy-4-(hydroxymethyl)pyridine-2,5-dicarboxamide], with 30 nM; and `O=C(NO)c1ncc(CNc2ccc(F)cc2)c(CO)c1O` [Example 21, 5-[(4-Fluoro-phenylamino)-methyl]-3-hydroxy-4-hydroxymethyl-pyridine-2-carboxylic Acid Hydroxyamide], with 4.3 nM; and `O=C(Nc1cnc(C(=O)NO)c(O)c1CO)c1ccc(F)cc1` [Example 23, 5-(4-Fluoro-benzoylamino)-3-hydroxy-4-hydroxymethyl-pyridine-2-carboxylic Acid Hydroxyamide], with 6300 nM.
Regarding `O=C(NO)c1ncc(CN(Cc2ccccc2)c2ccc(F)cc2)c(CO)c1O` [Example 25, 5-{[Benzyl-(4-fluoro-phenyl)-amino]-methyl}-3-hydroxy-4-hydroxymethyl-pyridine-2-carboxylic Acid Hydroxyamide], the 50% effective concentration (EC50) was determined as 175 nM.
On the same count and under the same terms, then `O=C(Nc1ccc(F)cc1)Nc1cnc(C(=O)NO)c(O)c1CO` [Example 27, 5-[3-(4-Fluoro-phenyl)-ureido]-3-hydroxy-4-hydroxymethyl-pyridine-2-carboxylic Acid Hydroxyamide], with 1100 nM; and `O=C(NO)c1ncc(COc2ccc(F)cc2)c(CO)c1O` [Example 28, 5-(4-Fluoro-phenoxymethyl)-3-hydroxy-4-hydroxymethyl-pyridine-2-carboxylic Acid Hydroxyamide], with 186 nM; and `COC(=O)N(Cc1ccc(F)cc1)Cc1cnc(C(=O)NO)c(O)c1CO` [Example 65, (4-Fluoro-benzyl)-(5-hydroxy-6-hydroxycarbamoyl-4-hydroxymethyl-pyridin-3-ylmethyl)-carbamic Acid Methyl Ester], with over 10000 nM.
`O=C(NO)c1ncc(CCc2ccc(F)cc2)c(CO)c1O` [Example 67, 5-[2-(4-Fluoro-phenyl)-ethyl]-3-hydroxy-4-hydroxymethyl-pyridine-2-carboxylic Acid Hydroxyamide]: the concentration giving a half-maximal response (EC50) was found to be 235 nM.
Consider `O=C(NO)c1ncc(CS(=O)(=O)Cc2ccc(F)cc2)c(CO)c1O` [Example 71, 5-(4-Fluoro-phenylmethanesulfonylmethyl)-3-hydroxy-4-hydroxymethyl-pyridine-2-carboxylic Acid Hydroxyamide], for which the concentration for a half-maximal effect (EC50) came to 4.3 nM.
Same read-out and setting: to `Cc1c(C(=O)NCc2ccc(F)c(Cl)c2)cnc(C(=O)NO)c1O` [Example 74, 3-Hydroxy-4-methyl-pyridine-2,5-dicarboxylic Acid 5-(3-chloro-4-fluoro-benzylamide)2-hydroxyamide] belongs 267 nM.

A further assay addresses T1, recombinant HIV-1 integrase (Human immunodeficiency virus type 1 group M subtype B, UniProt P12497).
T1 construct: Recombinant integrase (250 ng/well) was assembled onto the immobilized donor oligonucleotide
As to the kind of experiment: integrase strand transfer assay. The assay is classed as biochemical. Conditions: compounds added after assembly, 10% DMSO, read-out: ST IC50. As for the experimental part:
IC50 was determined for the compounds of the inventions based on data generated in strand transfer assays. The IC50 is a measure of the ability of the compounds tested to inhibit the integration of 3′-processed oligonucleotides by recombinant HIV-1 integrase.
Strand transfer assays were performed essentially as described in Hazuda, D. J.; Felock, P.; Hastings, J. C.; Pramanik, B.; Wolfe, A. J. Virol. 1997, 71, 7005-7011). Donor DNA (1.5 pmol/well), biotinylated on the 5′ end of the strand processed by integrase, was immobilized onto streptavidin-coated microtiter plates. Recombinant integrase (250 ng/well) was assembled onto the immobilized donor oligonucleotide in reaction buffer (20 mM Hepes, pH 7.6, 5 mM B-mercaptoethanol, 50 ug/mL bovine serum albumin) containing 30 mM MnCl2. Excess enzyme was removed, and the complexes were washed extensively prior to the addition of the target DNA substrate. The target DNA (0.75 pmoles/well) substrate was labeled on each 3′ end with FITC. After strand transfer, the FITC-labeled products were detected using an anti-FITC antibody conjugated with alkaline phosphatase (Roche) and a chemiluminescent substrate (Tropix CSPD with Sapphire II enhancer, Applied Biosystems). The assay was performed in a final concentration of 10% DMSO. To specifically evaluate inhibition of strand transfer, compounds were added after assembly, just prior to the addition of the target DNA.
The results of the integrase strand transfer assay are reported as IC50 values. IC50 values were determined using a sigmoidal dose-response equation. The formula used for calculating % inhibition was: % Inhibition=[1-(sample counts/average of positive control)]*100. […] Using GraphPad Prism or ActivityBase (IDBS) software IC50 was determined using following sigmoidal dose-response equation: Y=(A+((B−A)/(1+((C/X)^D))))
As for `O=C(NCc1ccc(F)c(Cl)c1)c1cnc(C(=O)NO)c(O)c1CO` [Example 14, N^5-(3-chloro-4-fluorobenzyl)-N2,3-dihydroxy-4-(hydroxymethyl)pyridine-2,5-dicarboxamide], the IC50 came to 0.027 µM.
With `O=C(NO)c1ncc(COCc2ccccc2)c(CO)c1O` [Example 18, 5-(Benzyloxymethyl)-N,3-dihydroxy-4-(hydroxymethyl)picolinamide], the IC50 came out at 0.088 µM.

The subject of the next assay is HIV-1 isolate 91US005. Briefly: acute infection assay in PHA-stimulated PBMCs, supernatant RT activity. The assay is classed as cell-based. Conditions: Human immunodeficiency virus 1, PBMC, 144 h, HIV-1 isolate 91US005, 6 day incubation. On the procedure:
(§1) Acute infection assays using fresh human phytohemagglutinin (PHA)-stimulated peripheral blood mononuclear cells (PBMCs) were carried out. PBMCs were stimulated with IL-2 and infected with one of two wild-type drug-sensitive clinical HIV-1 isolates. The strains HIV-1 used for the infections, 91US005 (primary R5 strain of HIV-1) and 94US33931N, are both Group M, Subtype B viruses. Antiviral activity was determined as a reduction in supernatent reverse transcriptase (RT) activity after a 6 day incubation.
With `Cc1cn([C@H]2C[C@H](N=[N+]=[N-])[C@@H](CO)O2)c(=O)[nH]c1=O` [Retrovir (AZT), 3-Azido-3-deoxythymine (Zidovudine), reference compound], a half-maximal effect (EC50) was put at 0.006 µM.

Another assay deals with HIV-1 isolate 94US33931N. The description is as above. The assay is classed as cell-based. Conditions: Human immunodeficiency virus 1, PBMC, 144 h, 6 day incubation. As for the experimental part:
as §1
Regarding `Cc1cn([C@H]2C[C@H](N=[N+]=[N-])[C@@H](CO)O2)c(=O)[nH]c1=O` [Retrovir (AZT), 3-Azido-3-deoxythymine (Zidovudine), reference compound], the EC50 was found to be 0.003 µM.
